Measured values as given in PubChem BioAssay (NCI).
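In this assay, cells in 96-well plates receive the compound at five concentrations for 48 hours. Endpoints are linearly interpolated between the surrounding concentrations. The concentration for 50% growth inhibition is given as GI50. Definition used: TGI = concentration required for complete inhibition of growth.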

Legend:
Assay in all cases: growth of human tumour cells (NCI), 48 h
TK-10 renal = system: TK-10 renal
EKVX NSCLC = system: EKVX NSCLC
PC-3 prostate = system: PC-3 prostate
M14 melanoma = system: M14 melanoma
UACC-257 melanoma = system: UACC-257 melanoma
SK-MEL-28 melanoma = system: SK-MEL-28 melanoma
SN12C renal = system: SN12C renal
SR leukemia = system: SR leukemia
MCF7 breast = system: MCF7 breast
NCI/ADR-RES ovarian = system: NCI/ADR-RES ovarian
K-562 leukemia = system: K-562 leukemia
UACC-62 melanoma = system: UACC-62 melanoma
SF-539 CNS = system: SF-539 CNS
DU-145 prostate = system: DU-145 prostate
HCC-2998 colon = system: HCC-2998 colon
HT29 colon = system: HT29 colon
MALME-3M melanoma = system: MALME-3M melanoma
OVCAR-4 ovarian = system: OVCAR-4 ovarian
A549 NSCLC = system: A549 NSCLC
UO-31 renal = system: UO-31 renal
KM12 colon = system: KM12 colon
SW-620 colon = system: SW-620 colon
HL-60(TB) leukemia = system: HL-60(TB) leukemia
NCI-H522 lung = system: NCI-H522 lung
HOP-92 NSCLC = system: HOP-92 NSCLC
OVCAR-8 ovarian = system: OVCAR-8 ovarian
786-0 renal = system: 786-0 renal
SNB-19 CNS = system: SNB-19 CNS
HCT-116 colon = system: HCT-116 colon
SF-268 CNS = system: SF-268 CNS
NCI-H23 lung = system: NCI-H23 lung
A498 renal = system: A498 renal
T-47D breast = system: T-47D breast
HOP-62 NSCLC = system: HOP-62 NSCLC
MDA-MB-231 breast = system: MDA-MB-231 breast
ACHN renal = system: ACHN renal
SK-MEL-2 melanoma = system: SK-MEL-2 melanoma
MDA-MB-435 = system: MDA-MB-435
RXF 393 renal = system: RXF 393 renal
MOLT-4 leukemia = system: MOLT-4 leukemia
COLO 205 colon = system: COLO 205 colon
OVCAR-3 ovarian = system: OVCAR-3 ovarian
HCT-15 colon = system: HCT-15 colon
SNB-75 CNS = system: SNB-75 CNS
U251 CNS = system: U251 CNS
NCI-H460 lung = system: NCI-H460 lung
LOX IMVI melanoma = system: LOX IMVI melanoma
SF-295 CNS = system: SF-295 CNS
SK-OV-3 ovarian = system: SK-OV-3 ovarian
NCI-H226 lung = system: NCI-H226 lung
CCRF-CEM leukemia = system: CCRF-CEM leukemia
IGROV1 ovarian = system: IGROV1 ovarian
OVCAR-5 ovarian = system: OVCAR-5 ovarian
CAKI-1 renal = system: CAKI-1 renal
SK-MEL-5 melanoma = system: SK-MEL-5 melanoma
RPMI-8226 leukemia = system: RPMI-8226 leukemia
BT-549 breast = system: BT-549 breast

SMILES: O=CC12c3ccccc3C(c3ccccc31)C1C(=O)NC(=O)C12 (stereo not given)
- TGI (TK-10 renal): > 100 µM
- TGI (EKVX NSCLC): > 100 µM
- TGI (PC-3 prostate): > 100 µM
- TGI (M14 melanoma): > 100 µM
- TGI (UACC-257 melanoma): > 100 µM
- TGI (SK-MEL-28 melanoma): > 100 µM
- TGI (SN12C renal): > 100 µM
- TGI (SR leukemia): > 100 µM
- TGI (MCF7 breast): 47.7 µM
- TGI (NCI/ADR-RES ovarian): > 100 µM
- TGI (K-562 leukemia): > 100 µM
- TGI (UACC-62 melanoma): > 100 µM
- TGI (SF-539 CNS): > 100 µM
- TGI (DU-145 prostate): > 100 µM
- TGI (HCC-2998 colon): > 100 µM
- TGI (HT29 colon): > 100 µM
- TGI (MALME-3M melanoma): > 100 µM
- TGI (OVCAR-4 ovarian): > 100 µM
- TGI (A549 NSCLC): > 100 µM
- TGI (UO-31 renal): > 100 µM
- TGI (KM12 colon): > 100 µM
- TGI (SW-620 colon): > 100 µM
- TGI (HL-60(TB) leukemia): > 100 µM
- TGI (NCI-H522 lung): > 100 µM
- TGI (HOP-92 NSCLC): > 100 µM
- TGI (OVCAR-8 ovarian): > 100 µM
- TGI (786-0 renal): > 100 µM
- TGI (SNB-19 CNS): > 100 µM
- TGI (HCT-116 colon): > 100 µM
- TGI (SF-268 CNS): > 100 µM
- TGI (NCI-H23 lung): > 100 µM
- TGI (A498 renal): 48.2 µM
- TGI (T-47D breast): > 100 µM
- TGI (HOP-62 NSCLC): > 100 µM
- TGI (MDA-MB-231 breast): > 100 µM
- TGI (ACHN renal): > 100 µM
- TGI (SK-MEL-2 melanoma): > 100 µM
- TGI (MDA-MB-435): > 100 µM
- TGI (RXF 393 renal): > 100 µM
- TGI (MOLT-4 leukemia): > 100 µM
- TGI (COLO 205 colon): > 100 µM
- TGI (OVCAR-3 ovarian): > 100 µM
- TGI (HCT-15 colon): > 100 µM
- TGI (SNB-75 CNS): > 100 µM
- TGI (U251 CNS): > 100 µM
- TGI (NCI-H460 lung): > 100 µM
- TGI (LOX IMVI melanoma): > 100 µM
- TGI (SF-295 CNS): > 100 µM
- TGI (SK-OV-3 ovarian): > 100 µM
- TGI (NCI-H226 lung): > 100 µM
- TGI (CCRF-CEM leukemia): > 100 µM
- TGI (IGROV1 ovarian): > 100 µM
- TGI (OVCAR-5 ovarian): > 100 µM
- TGI (CAKI-1 renal): > 100 µM
- TGI (SK-MEL-5 melanoma): > 100 µM

SMILES: O=C1Nc2ccccc2/C1=C/C(=O)c1ccc(N2CCCC2)cc1
- GI50 (TK-10 renal): 3.24 µM
- TGI (TK-10 renal): > 100 µM
- GI50 (EKVX NSCLC): 6.09 µM
- TGI (EKVX NSCLC): > 100 µM
- GI50 (PC-3 prostate): 1.77 µM
- TGI (PC-3 prostate): 8.04 µM
- GI50 (M14 melanoma): 2.28 µM
- TGI (M14 melanoma): 22.3 µM
- GI50 (UACC-257 melanoma): 4.3 µM
- TGI (UACC-257 melanoma): > 100 µM
- GI50 (SN12C renal): 3.26 µM
- TGI (SN12C renal): > 100 µM
- GI50 (SR leukemia): 0.327 µM
- TGI (SR leukemia): 4.42 µM
- GI50 (MCF7 breast): 2.05 µM
- TGI (MCF7 breast): > 100 µM
- GI50 (NCI/ADR-RES ovarian): 2.15 µM
- TGI (NCI/ADR-RES ovarian): 6.5 µM
- GI50 (K-562 leukemia): 0.833 µM
- TGI (K-562 leukemia): > 100 µM
- GI50 (RPMI-8226 leukemia): 1.98 µM
- TGI (RPMI-8226 leukemia): 5.31 µM
- GI50 (UACC-62 melanoma): 2.78 µM
- TGI (UACC-62 melanoma): 9.81 µM
- GI50 (SF-539 CNS): 2.11 µM
- TGI (SF-539 CNS): 4.75 µM
- GI50 (DU-145 prostate): 3.2 µM
- TGI (DU-145 prostate): > 100 µM
- GI50 (HT29 colon): 1.2 µM
- GI50 (MALME-3M melanoma): 2.84 µM
- TGI (MALME-3M melanoma): > 100 µM
- GI50 (OVCAR-4 ovarian): 3.1 µM
- TGI (OVCAR-4 ovarian): > 100 µM
- GI50 (A549 NSCLC): 3.34 µM
- TGI (A549 NSCLC): > 100 µM
- GI50 (UO-31 renal): 2.14 µM
- TGI (UO-31 renal): > 100 µM
- GI50 (SW-620 colon): 0.339 µM
- TGI (SW-620 colon): 3.01 µM
- GI50 (HL-60(TB) leukemia): 1.24 µM
- TGI (HL-60(TB) leukemia): 4.56 µM
- GI50 (NCI-H522 lung): 2.28 µM
- TGI (NCI-H522 lung): > 100 µM
- GI50 (HOP-92 NSCLC): 1.75 µM
- TGI (HOP-92 NSCLC): 7.11 µM
- GI50 (OVCAR-8 ovarian): 1.62 µM
- TGI (OVCAR-8 ovarian): 4.5 µM
- GI50 (786-0 renal): 2.84 µM
- TGI (786-0 renal): > 100 µM
- GI50 (SNB-19 CNS): 3.8 µM
- TGI (SNB-19 CNS): > 100 µM
- GI50 (HCT-116 colon): 1.56 µM
- TGI (HCT-116 colon): 4.24 µM
- GI50 (NCI-H23 lung): 5.2 µM
- TGI (NCI-H23 lung): > 100 µM
- GI50 (A498 renal): 3.45 µM
- TGI (A498 renal): > 100 µM
- GI50 (T-47D breast): 2.12 µM
- TGI (T-47D breast): 6.38 µM
- GI50 (HOP-62 NSCLC): 2.47 µM
- TGI (HOP-62 NSCLC): > 100 µM
- GI50 (MDA-MB-231 breast): 3.73 µM
- TGI (MDA-MB-231 breast): > 100 µM
- GI50 (SK-MEL-2 melanoma): 3.87 µM
- TGI (SK-MEL-2 melanoma): > 100 µM
- GI50 (MDA-MB-435): 1.25 µM
- TGI (MDA-MB-435): > 100 µM
- GI50 (MOLT-4 leukemia): 2.02 µM
- GI50 (COLO 205 colon): 1.67 µM
- TGI (COLO 205 colon): 4.96 µM
- GI50 (OVCAR-3 ovarian): 1.79 µM
- TGI (OVCAR-3 ovarian): 4.83 µM
- GI50 (HCT-15 colon): 0.686 µM
- TGI (HCT-15 colon): 9.7 µM
- GI50 (SNB-75 CNS): 2.05 µM
- TGI (SNB-75 CNS): 6.91 µM
- GI50 (U251 CNS): 2.89 µM
- TGI (U251 CNS): > 100 µM
- GI50 (NCI-H460 lung): 2.86 µM
- TGI (NCI-H460 lung): 8.17 µM
- GI50 (LOX IMVI melanoma): 1.73 µM
- TGI (LOX IMVI melanoma): 3.56 µM
- GI50 (SF-295 CNS): 3.96 µM
- TGI (SF-295 CNS): > 100 µM
- GI50 (BT-549 breast): 3.27 µM
- TGI (BT-549 breast): > 100 µM
- GI50 (SK-OV-3 ovarian): 3.4 µM
- TGI (SK-OV-3 ovarian): > 100 µM
- GI50 (NCI-H226 lung): 4.35 µM
- TGI (NCI-H226 lung): > 100 µM
- GI50 (CCRF-CEM leukemia): 2 µM
- TGI (CCRF-CEM leukemia): > 100 µM
- GI50 (IGROV1 ovarian): 1.71 µM
- TGI (IGROV1 ovarian): 9.07 µM
- GI50 (OVCAR-5 ovarian): 4.54 µM
- TGI (OVCAR-5 ovarian): > 100 µM
- GI50 (CAKI-1 renal): 1.2 µM
- TGI (CAKI-1 renal): > 100 µM
- GI50 (SK-MEL-5 melanoma): 2.96 µM
- TGI (SK-MEL-5 melanoma): > 100 µM
